From patent US9452177B2, “Vitamin D compounds and methods for reducing ocular hypertension (OHT)” (Wisconsin Alumni Research Foundation, priority 2008, dated 2016)

System: eyes of ocular normotensive cynomolgus monkeys
Experiment: Intraocular pressure (IOP) by Goldmann applanation tonometry after 5 twice-daily unilateral topical treatments
Assay type: in vivo, cynomolgus monkeys (Macaca fascicularis)
Conditions: for IOP less than at baseline prior to the 5th treatment: one eye, both treated and control eye; for IOP decrease prior to the fifth treatment on day 3: both eyes
Procedure: Ocular normotensive adult cynomolgus monkeys (Macaca fascicularis), of either sex, weighing 3-7 kg were anesthetized with i.m. ketamine HCl (3-25 mg/kg, supplemented with 1-10 mg/kg) for IOP and topical drop administration. All monkeys were free of any ocular abnormalities according to slit lamp biomicroscopy at the time measurements were taken. The monkeys were provided by the Primate Center at the University of Wisconsin-Madison. All experiments were done in accordance with the ARVO Statement on the Use of Animals in Ophthalmic and Vision Research.
The intraocular pressure (IOP) was determined with a “minified” Goldmann applanation tonometer [Kaufman, 1980] using HALF AND HALF™ creamer solution (Borden) as the tear film indicator [Croft, 1997] with the monkey lying prone in a head holder and the eyes positioned 4 to 8 cm above the heart. All monkeys were examined by slit-lamp before the first IOP measurement in each protocol. For each eye, two or three IOP measurements were averaged as a baseline.
Under ketamine anesthesia (KETAJECT™, Phoenix Pharmaceutical, St Joseph, Mo. (3-25 mg/kg i.m., supplemented with 1-10 mg/kg i.m. as needed) baseline IOP was determined, usually between 7:30 and 9 am (2 readings, 5 minutes apart; if IOP baseline measurements were not within 2-3 mm Hg of each other, a 3rd reading was taken 5 min later). Baseline IOP was at least 15 mmHg if possible. A baseline blood sample was taken from the femoral artery or vein, or sometimes the brachial vein (1-2 ml). This was allowed to clot and then spun down (3000 rpm for 10 min, Damon/IEC NH-SII centrifuge) and the serum removed and frozen at −20 C for no more than 1 week. Baseline systolic, diastolic and mean arterial pressure as well as heart rate were recorded with the Dinamap monitor from a cuff placed around the arm or the leg.
After baseline measurements, the monkey was place supine with the eye pointing up and the eyelid held open. A 5 μl drop of test material or vehicle was delivered to opposite eyes. The eyelid was held open for at least 30 sec and the eye was maintained in the upward position for an additional 30 sec. The monkey was then returned to its cage and allowed to wake up. In the afternoon, at least 6 hours after the morning treatment, another treatment was administered. On the second day, dosing was repeated in the am and pm.
On the 3th day, prior to the 5th treatment, baseline IOP, biomicroscopy and MAP were determined. Preliminary studies indicated an effect was observed after these treatments but not after a single treatment. Following the 5th dose, IOP was measured at 1, 2, 3, 4, 5, 6, 7, 8, 12 (if possible), 24, and sometimes 48 hr. Biomicroscopy was done at 1, 3, 6, 24 and sometimes 48 hr. MAP on day 3 (some protocols) was determined at 1, 2, 3, 4, 5, 6, 7, 8, 24 and sometimes 48 hr if possible. Blood samples after the 5th treatment were collected at 6, 24, and sometimes 48 hr. For some protocols, IOP was also measured prior to each treatment; MAP was measured prior to the morning treatment; blood was collected prior to the afternoon treatment. Subsequent screening protocols will not include the MAP and blood collections and will only measure IOP at baseline and prior to and for 1-6 hr after the 5th treatment.
Adult cynomolgus monkeys (Macaca fascicularis) of either sex were anesthetized with intramuscular ketamine HCl (10 mg/kg initial, 5 mg/kg supplemental). Baseline pretreatment IOP was determined by Goldmann applanation tonometry [Kaufman, 1980] with […] used as a tear film indicator [Croft, 1997]. Two baseline IOP measurements were taken 5 minutes apart. […]

[1] = Example 3, 5 μg unilateral topical

Structure (SMILES): C=C1/C(=C\C=C2/CCC[C@]3(C)[C@@H]([C@H](C)CCCC(C)(C)O)CC[C@@H]23)C[C@@H](O)C[C@@H]1O [1,25-(OH)2D3, 1α,25-dihydroxyvitamin D3]
- IOP in treated eye compared with control eye (Example 1, 5 μg (2MD 6 μg) in 5 μl propylene glycol one eye, vehicle opposite eye): consistently, but not significantly less than in the control eye
- IOP less than at baseline prior to the 5th treatment (Example 1, 5 μg in 5 μl propylene glycol twice daily, n=8): 3-4 mmHg
- IOP less than at baseline prior to the 5th treatment (Example 1, 5 μg twice daily, n=8, p<0.05): ~17%
- time of gradual recovery of IOP toward baseline (Example 1, 5 μg, after 5th treatment): 24 to 48 h
- additional IOP decrease after the 5th treatment (Example 1, 5 μg, hr 1-4 after 5th dose): 1-2 mmHg
- total IOP reduction after the 5th treatment (Example 1, 5 μg, hr 1-4 after 5th dose, p<0.02): 20-30%
- strongest response, IOP decrease (Example 1, 5 uniocular topical treatments): up to 40%
- rank order of ocular hypotensive effect (Example 1, 5 uniocular topical treatments at the same dose): 1,25(OH)2D3>2MD>AGR
- effect on IOP (Example 3, 0.1 μg unilateral topical, either eye): did not have any significant effect on IOP in either eyes
- IOP reduction in control versus treated eyes (Example 3, 1 μg): stronger IOP reduction in the fellow control eyes than in the treated eyes
- IOP reduction (bilateral) (Example 3, 1 μg unilateral topical): 20%
- IOP difference between treated and control eyes (Example 3, 5 μg): no significant differences between the two eyes except for the time period of 12 h or longer
- IOP reduction, control eyes (Example 3, 5 μg in opposite eye): 27%
- IOP reduction, treated eye [1]: 30%
- IOP decrease prior to the fifth treatment on day 3 [1]: ~3 mmHg
- IOP decrease prior to the fifth treatment on day 3 (Example 3, 5 μg unilateral topical, p<0.05): approximately 20%
- time of return of IOP to near pretreatment baseline (Example 3, 5 μg, after fifth treatment): 48 h
- duration of IOP-lowering effect (topical application, nonhuman primates): more than 12 hours
